Counter-ions that a name gives are not always drawn.
How the values were obtained:
[1] = tested on: HuH-7 hepatocellular carcinoma cells; assay: CellTiter Glo (CTG) Assay; details: Homo sapiens, Huh-7, 72 h, read-out: HUH7 proliferation (nM) CTG
[2] = tested on: HuH-7 hepatocellular carcinoma cells; assay: Methylene Blue Staining Proliferation Assay (MBS); details: Homo sapiens, Huh-7, 72 h, read-out: HUH7 proliferation (nM) MBS
[3] = target: FGFR1 (407-822) (Homo sapiens (Human), UniProt P11362); assay: In vitro biochemical assay for FGFR1
[4] = target: Tel-FGFR4 (Homo sapiens (Human), UniProt P22455); assay: In vitro cellular kinase assay for FGFR4 (BaF3-Tel-FGFR4 cells, MSD capture ELISA of tyrosine phosphorylation); assay type: cell-based; details: BaF3-Tel-FGFR4 cells, 1 hour incubation; read-out: Cellular BaF3 FGFR4 IC50
[5] = target: FGFR2 (406-821) (Homo sapiens (Human), UniProt P21802); assay: In vitro biochemical assay for FGFR2
[6] = target: FGFR4 (GST-FGFR4(388-802)) (Homo sapiens (Human), UniProt P22455); assay: In-vitro biochemical kinase assay for FGFR4 (Caliper microfluidic mobility shift); details: read-out: Biochemical FGFR4 IC50
[7] = target: FGFR3 (411-806) (Homo sapiens (Human), UniProt P22607); assay: In vitro biochemical assay for FGFR3
Sequence of FGFR3 (411-806) (P22607 411-806): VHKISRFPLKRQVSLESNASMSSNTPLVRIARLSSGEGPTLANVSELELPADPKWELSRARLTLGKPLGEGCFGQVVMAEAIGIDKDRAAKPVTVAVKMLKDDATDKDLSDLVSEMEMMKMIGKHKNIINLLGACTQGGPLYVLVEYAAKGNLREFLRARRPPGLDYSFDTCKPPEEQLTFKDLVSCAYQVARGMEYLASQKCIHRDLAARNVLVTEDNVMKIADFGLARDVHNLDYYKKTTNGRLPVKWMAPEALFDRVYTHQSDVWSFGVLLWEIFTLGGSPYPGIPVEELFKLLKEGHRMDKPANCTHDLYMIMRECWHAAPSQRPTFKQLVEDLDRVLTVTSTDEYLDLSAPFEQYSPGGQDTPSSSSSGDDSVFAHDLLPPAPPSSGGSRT

Sequence of FGFR2 (406-821) (P21802 406-821): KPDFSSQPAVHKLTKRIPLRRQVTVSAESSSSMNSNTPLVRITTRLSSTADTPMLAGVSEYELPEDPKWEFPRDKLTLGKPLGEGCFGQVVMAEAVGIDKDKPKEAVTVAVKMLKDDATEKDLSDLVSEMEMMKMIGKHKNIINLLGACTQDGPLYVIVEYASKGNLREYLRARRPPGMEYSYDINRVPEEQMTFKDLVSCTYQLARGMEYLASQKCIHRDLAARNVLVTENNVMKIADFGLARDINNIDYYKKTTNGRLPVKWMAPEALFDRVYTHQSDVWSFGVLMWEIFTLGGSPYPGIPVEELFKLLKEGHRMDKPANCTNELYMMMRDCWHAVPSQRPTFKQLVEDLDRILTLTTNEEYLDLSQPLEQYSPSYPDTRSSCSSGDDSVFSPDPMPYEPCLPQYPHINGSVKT
Sequence of FGFR1 (407-822) (P11362 407-822): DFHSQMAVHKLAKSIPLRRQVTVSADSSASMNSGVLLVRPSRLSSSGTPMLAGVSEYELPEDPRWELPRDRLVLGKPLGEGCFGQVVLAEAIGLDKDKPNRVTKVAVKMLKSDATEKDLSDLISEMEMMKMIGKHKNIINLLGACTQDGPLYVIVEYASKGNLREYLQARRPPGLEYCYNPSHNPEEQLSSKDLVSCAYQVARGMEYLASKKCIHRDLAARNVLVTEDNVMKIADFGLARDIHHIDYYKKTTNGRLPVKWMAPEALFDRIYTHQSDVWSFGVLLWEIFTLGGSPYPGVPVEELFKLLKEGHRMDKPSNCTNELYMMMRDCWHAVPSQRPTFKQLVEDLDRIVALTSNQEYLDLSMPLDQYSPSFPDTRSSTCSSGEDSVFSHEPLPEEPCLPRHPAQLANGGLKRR
Sequence of Tel-FGFR4 (P22455 other isoform, or with tags, fused parts or gaps): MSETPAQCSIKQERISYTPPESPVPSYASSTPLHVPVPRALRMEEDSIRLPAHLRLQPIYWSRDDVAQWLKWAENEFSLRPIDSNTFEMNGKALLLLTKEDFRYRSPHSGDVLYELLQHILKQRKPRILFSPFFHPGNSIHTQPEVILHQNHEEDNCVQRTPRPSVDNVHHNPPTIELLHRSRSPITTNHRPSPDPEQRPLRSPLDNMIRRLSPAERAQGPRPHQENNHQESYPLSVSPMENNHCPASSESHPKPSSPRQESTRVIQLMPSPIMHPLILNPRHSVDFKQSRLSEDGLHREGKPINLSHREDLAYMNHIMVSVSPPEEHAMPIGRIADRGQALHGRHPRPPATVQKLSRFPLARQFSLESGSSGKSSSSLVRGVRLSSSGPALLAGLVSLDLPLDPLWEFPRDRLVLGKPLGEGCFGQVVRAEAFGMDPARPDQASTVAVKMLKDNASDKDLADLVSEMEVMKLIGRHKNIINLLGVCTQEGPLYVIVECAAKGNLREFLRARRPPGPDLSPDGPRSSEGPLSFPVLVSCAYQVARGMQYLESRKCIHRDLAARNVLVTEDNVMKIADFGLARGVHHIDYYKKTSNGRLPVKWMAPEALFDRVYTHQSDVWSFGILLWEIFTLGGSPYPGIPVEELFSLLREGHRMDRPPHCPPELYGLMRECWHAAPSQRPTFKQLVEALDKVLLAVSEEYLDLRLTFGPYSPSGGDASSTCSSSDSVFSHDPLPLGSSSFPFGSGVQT
Sequence of FGFR4 (GST-FGFR4(388-802)) (P22455 388-802): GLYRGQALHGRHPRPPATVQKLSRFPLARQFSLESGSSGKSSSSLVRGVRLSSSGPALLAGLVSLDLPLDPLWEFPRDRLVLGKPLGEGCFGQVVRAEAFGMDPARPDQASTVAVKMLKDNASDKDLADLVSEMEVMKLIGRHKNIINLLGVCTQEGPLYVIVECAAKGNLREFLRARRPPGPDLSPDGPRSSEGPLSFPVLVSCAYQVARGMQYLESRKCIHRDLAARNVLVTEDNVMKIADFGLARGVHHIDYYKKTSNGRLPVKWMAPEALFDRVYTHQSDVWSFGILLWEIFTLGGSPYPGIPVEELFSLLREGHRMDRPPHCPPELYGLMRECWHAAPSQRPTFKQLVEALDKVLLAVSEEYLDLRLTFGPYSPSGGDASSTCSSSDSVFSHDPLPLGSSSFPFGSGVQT

Structure (SMILES) | IC50 [1] [nM] | IC50 [2] [nM] | IC50 [3] [nM] | IC50 [4] [nM] | IC50 [5] [nM] | IC50 [6] [nM] | IC50 [7] [nM]
COCCNc1cc(NC(=O)N2CCCc3cc(CN4CCN(C)CC4=O)c(C=O)nc32)ncc1C#N [Example 83, N-(5-cyano-4-((2-methoxyethyl)amino)pyridin-2-yl)-7-formyl-6-((4-methyl-2-oxopiperazin-1-yl)methyl)-3,4-dihydro-1,8-naphthyridine-1(2H)-carboxamide] | 60.9 | 12 |  |  |  |  | 
COCCNc1cc(NC(=O)N2CCCc3cc(CN(CCN(C)C)C(C)=O)c(C=O)nc32)ncc1C#N [Example 143, N-(5-cyano-4-((2-methoxyethyl)amino)pyridin-2-yl)-6-((N-(2-(dimethylamino)ethyl)acetamido)methyl)-7-formyl-3,4-dihydro-1,8-naphthyridine-1(2H)-carboxamide] | 171 | 104 | > 10000 | 16.7 | > 10000 | 2 | > 10000
COCCNc1cc(NC(=O)N2CCCc3cc(CN4CCNCC4=O)c(C=O)nc32)ncc1C#N [Example 110, N-(5-cyano-4-((2-methoxyethyl)amino)pyridin-2-yl)-7-formyl-6-((2-oxopiperazin-1-yl)methyl)-3,4-dihydro-1,8-naphthyridine-1(2H)-carboxamide hydrochloride] | 59.7 | 46 | > 10000 | 8.6 | > 10000 | 1.4 | > 10000
COC[C@@H](C)Oc1cc(NC(=O)N2CCCc3cc(CN4CCN(C)CC4=O)c(C=O)nc32)ncc1C#N [Example 205, (R)-N-(5-cyano-4-((1-methoxypropan-2-yl)oxy)pyridin-2-yl)-7-formyl-6-((4-methyl-2-oxopiperazin-1-yl)methyl)-3,4-dihydro-1,8-naphthyridine-1(2H)-carboxamide] |  | 14 | > 10000 |  | > 10000 |  | > 10000
CC(C)n1cnc2cnc(NC(=O)N3CCCc4cc(CN5CCN(C)CC5=O)c(C=O)nc43)cc21 [Example 216, 7-formyl-N-(1-isopropyl-1H-imidazo[4,5-c]pyridin-6-yl)-6-((4-methyl-2-oxopiperazin-1-yl)methyl)-3,4-dihydro-1,8-naphthyridine-1(2H)-carboxamide] | > 3000 | > 1000 | > 10000 |  | > 10000 |  | > 10000
COCCNc1cc(NC(=O)N2CCCc3cc(CO)c(C=O)nc32)ncc1C(F)(F)F [Example 84, 7-formyl-6-(hydroxymethyl)-N-(4-((2-methoxyethyl)amino)-5-(trifluoromethyl)pyridin-2-yl)-3,4-dihydro-1,8-naphthyridine-1(2H)-carboxamide] | 944 | 929 | > 10000 | 33.5 | > 10000 | 21 | > 10000
O=Cc1ccc2c(n1)N(C(=O)Nc1ccc(Cl)cn1)CCC2 [Example 4, N-(5-chloropyridin-2-yl)-7-formyl-3,4-dihydro-1,8-naphthyridine-1(2H)-carboxamide] |  | > 3000 |  |  |  |  | 
COCCNc1cc(NC(=O)N2CCCc3cc(-c4cnn(C)c4)c(C=O)nc32)ncc1C#N [Example 251, N-(5-cyano-4-((2-methoxyethyl)amino)pyridin-2-yl)-7-formyl-6-(1-methyl-1H-pyrazol-4-yl)-3,4-dihydro-1,8-naphthyridine-1(2H)-carboxamide] | 1340 | 264 |  | 12.9 |  |  | 
CC(C)Oc1cc(NC(=O)N2CCCc3cc(CN(C)C(=O)CO)c(C=O)nc32)ncc1C#N [Example 141, N-(5-cyano-4-isopropoxypyridin-2-yl)-7-formyl-6-((2-hydroxy-N-methylacetamido)methyl)-3,4-dihydro-1,8-naphthyridine-1(2H)-carboxamide] | 36 | 43 | > 10000 | 3.9 | > 10000 |  | > 10000
CC(C)Oc1cc(NC(=O)N2CCCc3cc(C4CCNCC4)c(C=O)nc32)ncc1C#N [Example 265, N-(5-cyano-4-isopropoxypyridin-2-yl)-7-formyl-6-(piperidin-4-yl)-3,4-dihydro-1,8-naphthyridine-1(2H)-carboxamide] | 404 |  | > 10000 | 87 | > 10000 | 3.5 | > 10000
CN1CCC(COc2cc(NC(=O)N3CCCc4cc(CO)c(C=O)nc43)ncc2C#N)CC1 [Example 78, N-(5-cyano-4-((1-methylpiperidin-4-yl)methoxy)pyridin-2-yl)-7-formyl-6-(hydroxymethyl)-3,4-dihydro-1,8-naphthyridine-1(2H)-carboxamide] |  | 279 | > 10000 | 17 | > 10000 | 20 | > 10000
COCCNc1cc(NC(=O)N2CCCc3cc(CN4CCS(=O)(=O)CC4=O)c(C=O)nc32)ncc1C#N [Example 150, N-(5-cyano-4-((2-methoxyethyl)amino)pyridin-2-yl)-6-((1,1-dioxido-3-oxothiomorpholino)methyl)-7-formyl-3,4-dihydro-1,8-naphthyridine-1(2H)-carboxamide] | 45.5 |  | > 10000 | 5.8 | > 10000 | 1.2 | > 10000
N#Cc1cnc(NC(=O)N2CCCc3cc(CO)c(C=O)nc32)cc1OC1CN2CCC1CC2 (racemic) [Example 82, N-(5-cyano-4-(quinuclidin-3-yloxy)pyridin-2-yl)-7-formyl-6-(hydroxymethyl)-3,4-dihydro-1,8-naphthyridine-1(2H)-carboxamide] |  | 2010 | > 10000 | 83.5 | > 10000 | 56 | > 10000
CN1CCN(Cc2cc3c(nc2C=O)N(C(=O)Nc2cc(NCCO)c(C#N)cn2)CCC3)C(=O)C1 [Example 197, N-(5-cyano-4-((2-hydroxyethyl)amino)pyridin-2-yl)-7-formyl-6-((4-methyl-2-oxopiperazin-1-yl)methyl)-3,4-dihydro-1,8-naphthyridine-1(2H)-carboxamide] | 146 |  | > 10000 | 19.1 | > 10000 | 1.2 | > 10000
COC[C@@H](C)Oc1cc(NC(=O)N2CCCc3cc(CN4C(=O)OC[C@@H]4C)c(C=O)nc32)ncc1C#N [Example 115, N-(5-cyano-4-(((R)-1-methoxypropan-2-yl)oxy)pyridin-2-yl)-7-formyl-6-(((S)-4-methyl-2-oxooxazolidin-3-yl)methyl)-3,4-dihydro-1,8-naphthyridine-1(2H)-carboxamide] | 17.5 | 29 |  | 3.9 |  | 0.2 | 
COCCNc1cc(NC(=O)N2CCCc3cc(CN4CCSCC4=O)c(C=O)nc32)ncc1C#N [Example 149, N-(5-cyano-4-((2-methoxyethyl)amino)pyridin-2-yl)-7-formyl-6-((3-oxothiomorpholino)methyl)-3,4-dihydro-1,8-naphthyridine-1(2H)-carboxamide] | 77.5 |  | > 10000 | 5.3 | > 10000 | 0.1 | > 10000

From patent US9266883B2, “Ring-fused bicyclic pyridyl derivatives as FGFR4 inhibitors” (Novartis AG, priority 2013, dated 2016)
